A short description of data set [1]: Aqueous solubility in PBS. The format is physicochemical. To be noted: buffer.
A short description of data set [2]: Lipophilicity, logP of compound. It counts as physicochemical. The conditions noted are these: octanol/water.
Another data set has as its system A-375. Briefly: Dark toxicity against human A-375 cells assessed as reduction in cell viability incubated for 16 hrs by CCK-8 assay. The format is functional, cell-based. The conditions noted are these: A-375, 16 h. On the technique in general: Tetrazolium dyes change colour on reduction, which living cells bring about.
Data set [3] in a line: Phototoxicity against human A-375 cells assessed as reduction in cell viability incubated for 16 hrs followed by irradiated with 54 J/cm^2 of light dose and further incubated for 24 hrs by CCK-8 assay. It counts as toxicity, cell-based. To be noted: A-375, light or radiation study.
Data set [4] in a line: Phototoxicity against human HeLa cells assessed as reduction in cell viability incubated for 16 hrs followed by irradiated with 54 J/cm^2 of light dose and further incubated for 24 hrs by CCK-8 assay. The format is toxicity, cell-based. To be noted: light or radiation study.
In a further data set the test system is HeLa. Nature of the data set: Dark toxicity against human HeLa cells assessed as reduction in cell viability incubated for 16 hrs by CCK-8 assay. It counts as functional, cell-based.
Data set [5] has as its system B16-F10. Briefly: Dark toxicity against mouse B16-F10 cells assessed as reduction in cell viability incubated for 16 hrs by CCK-8 assay. The conditions noted are these: B16-F10, 16 h. The format is cell-based.
Data set [6] can be described thus: Phototoxicity against mouse B16-F10 cells assessed as reduction in cell viability incubated for 16 hrs followed by irradiated with 54 J/cm^2 of light dose and further incubated for 24 hrs by CCK-8 assay. The format is toxicity, cell-based. To be noted: B16-F10, light or radiation study.
Data set [7] can be described thus: Toxicity in C57BL/6 mouse harboring mouse B16-F10 cells assessed as change in body weight at 2 mg/kg, iv irradiated with 60 J/cm^2 laser light measured upto 14 days. The format is organism-based. The conditions noted are these: in vivo, 336 h, time <=14 day.
Data set [8] has as its system B16-F10. Nature of the data set: Antitumor activity against mouse B16-F10 cells implanted in C57BL/6 mouse assessed as inhibition of tumor growth at 2 mg/kg, iv irradiated with 60 J/cm^2 laser light by IVIS imaging analysis measured upto 48 hrs. The conditions noted are these: time hrs <=48. It counts as functional, organism-based.
Data set [9] deals with B16-F10. Nature of the data set: Antitumor activity against mouse B16-F10 cells implanted in C57BL/6 mouse assessed as tumor destruction at 2 mg/kg, iv irradiated with 60 J/cm^2 laser light measured after 14 days by hematoxylin and eosin based microscopic analysis. To be noted: time 14.0 day. The format is functional, organism-based.
In data set [10] the test system is B16-F10. Briefly: Antitumor activity against mouse B16-F10 cells implanted in C57BL/6 mouse assessed as tumor regrowth at 2 mg/kg, iv upto after 6 days irradiated with 60 J/cm^2 laser light by IVIS imaging analysis. It counts as functional, organism-based. To be noted: time 6.0 day.

Values after ≈ are worked out from the molar mass of the structure shown. Active and inactive are the calls of the source. The rule behind the calls is not given here.

For orientation: solubility means how much of the substance goes into solution per volume. High values mean much dissolved substance, low ones little dissolved substance. As usually defined, the logP is a log measure of how a compound divides between an organic and an aqueous phase. The compound `COc1ccc(C2=[N+]3C(=Nc4c(-c5ccccc5)c5c(n4[B-]3(F)F)-c3ccc(OC)cc3CC5)C(c3ccccc3)=C2I)cc1` yielded a solubility in data set [1] below 1 µM. In data set [2], this compound came in with a lipophilicity (logP) above 3.

By IC50 is commonly meant the midpoint of a concentration-inhibition curve. As to `COc1ccc2c(c1)CCc1c(-c3ccccc3)c3n(c1-2)[B-](F)(F)[N+]1=C(c2ccc(OCC(=O)N[C@@H](CCC(=O)O)C(=O)O)cc2)C(I)=C(c2ccccc2)C1=N3`, the IC50 in the data set with A-375 was above 250000 nM; in [3], 284 nM; in [4], 119 nM; with HeLa, above 250000 nM; in the data set on B16-F10 [5] it was above 250000 nM; in [6], 212 nM. This compound gave a solubility in data set [1] of 110 µM (≈ 96.7 µg/mL). This compound had a logP in [2] of -0.71.

Consider `COc1ccc2c(c1)CCc1c(-c3ccccc3)c3n(c1-2)[B-](F)(F)[N+]1=C(c2ccc(OCC(=O)O)cc2)C(I)=C(c2ccccc2)C1=N3`, for which the IC50 in the data set on A-375 is above 50000 nM; in [3], 320 nM; in data set [4], 274 nM; in the data set on HeLa it was above 50000 nM; with B16-F10 [5] it was above 50000 nM; in [6], 346 nM. In data set [1], the solubility came to 21.8 µM (≈ 16.4 µg/mL). Moreover, the lipophilicity (logP) in data set [2] came out at 0.92.

Regarding `COc1ccc(C2=[N+]3C(=Nc4c(-c5ccccc5)c5c(n4[B-]3(F)F)-c3ccc(OCC(=O)N[C@@H](CCC(=O)O)C(=O)O)cc3CC5)C(c3ccccc3)=C2I)cc1`, the IC50 in the data set with A-375 is above 250000 nM; in [3] it was 166 nM; in [4] it was 78 nM; in the data set on HeLa it was above 250000 nM; with B16-F10 [5], above 250000 nM; in data set [6], 159 nM. This compound had a solubility in data set [1] of 158 µM (≈ 139 µg/mL). This compound showed a logP in data set [2] of -0.74.

As for `COc1ccc2c(c1)CCc1c(-c3ccccc3)c3n(c1-2)[B-](F)(F)[N+]1=C(c2ccc(OCC(=O)N[C@@H](CC(=O)O)C(=O)O)cc2)C(I)=C(c2ccccc2)C1=N3`, the half-maximal inhibitory concentration (IC50) was above 250000 nM with A-375; 148 nM in data set [3]; 55 nM in data set [4]; above 250000 nM in the data set with HeLa; above 250000 nM in the data set with B16-F10 [5]; 126 nM in [6]. In data set [1], the concentration in solution (solubility) came to 115 µM (≈ 100 µg/mL). In data set [2], this compound yielded a logP of -0.73.

Consider `C=Cc1c(C)c2cc3nc(c(CC(=O)O)c4[nH]c(cc5nc(cc1[nH]2)C(C)=C5CC)c(C)c4C(=O)O)[C@@H](CCC(=O)O)[C@@H]3C` [CHLORIN E6], for which the Activity result in [7] is recorded as “Non-Toxic”. Besides, the outcome in the data set on B16-F10 [8] was inactive.

As to `COc1ccc(C2=[N+]3C(=Nc4c(-c5ccccc5)cc(-c5ccc(OC)cc5)n4[B-]3(F)F)C(c3ccccc3)=C2I)cc1`, the IC50 with A-375 is above 50000 nM; in data set [3], 254 nM; in [4], 76 nM; in the data set on HeLa, above 50000 nM; in the data set on B16-F10 [5], above 50000 nM; in [6], 276 nM. In addition, the result in the data set with B16-F10 [9], with B16-F10 [8] and with B16-F10 [10] was Active. In addition, the Activity entry in data set [7] was “Non-Toxic”. The compound also came in with a solubility in data set [1] below 1 µM. In data set [2], this compound yielded a lipophilicity (logP) above 3.

`COc1ccc(C2=[N+]3C(=Nc4c(-c5ccccc5)c5c(n4[B-]3(F)F)-c3ccc(OCC(=O)O)cc3CC5)C(c3ccccc3)=C2I)cc1`: the IC50 in the data set with A-375 was above 50000 nM; in data set [3], 142 nM; in data set [4], 56 nM; with HeLa it was above 50000 nM; with B16-F10 [5], above 50000 nM; in data set [6], 104 nM. In data set [1], this compound showed a solubility of 28.4 µM (≈ 21.4 µg/mL). This compound came in with a logP in [2] of 0.94.

The values are drawn from ChEMBL document CHEMBL5038667, “Discovery of an Amino Acid-Modified Near-Infrared Aza-BODIPY Photosensitizer as an Immune Initiator for Potent Photodynamic Therapy in Melanoma” (J Med Chem, 2022).
